# Measured values reported in patent US9861678B2, “Casein peptide for use in the treatment of uterine infections” (Mileutis Ltd., priority 2010, dated 2018).
# Assays:
# [1] = test system: dairy cows with clinical postpartum metritis; assay: Clinical study 1, low dose: casein hydrolysate vs antibiotics in post-partum bovine clinical metritis (safety and efficacy); type: in vivo; details: for genital secretions (ranking): score 0-4 per Table 2
# Method: The effects of bovine casein hydrolysate in comparison with antibiotic drugs, was studied in dairy cows suffering from acute puerperal metritis (Sheldon et al., ibid 2006).
# The cows recruited for this study were lactating Holstein Friesian located in large dairy herd in Israel (longitude 34°40′E-35°30′E; latitude 30°30′N-33°01′N). The cows were milked 3 times a day. The herd used was free-stall barn with a size ranged from 300 to 350 milking cows.
# Cows are enrolled to the study provided that their physical condition is complied with the inclusion criteria as follows: • Cows with clinical postpartum metritis, • Cows with non-twins delivery, • Cows were not administered with intrauterine or systemic reproductive hormone therapy during the last 4 weeks, • Cows with no diagnosed morbidities, which may be potentially influence the outcome of treatment in the judgment of the investigator, • The herd managers agreed not to administer any intrauterine or reproductive hormonal therapy before examination of cows for this trial.
# In addition, cows were enrolled to the clinical study provided that they have none of the following characteristics (herein “exclusion criteria”): • Cows had abnormal internal genitalia (including adhesions) • Cows with diagnosis and or treatment of severe vaginitis, lameness, mastitis-ketosis and digestive disorders during the current post calving period or any other clinical disease requiring systemic treatment at enrollment, • Cows identified to be culled (not to be inseminated) after calving • Cows administrated with immunotherapy within 3 weeks prior to study entry, • Cows administrated with anti-inflammatory and/or anabolic therapies, either systemic or by feeding 2 weeks prior to study entry. • Cows which are suspected or with a diagnosis of retained fetal membranes at the time of the current calving. • Cows which are suspected or with a clinical evidence of acute puerperal metritis with a systemic effect • Cows which are indented to be removed for any reason from the farm in the current location.
# Cows in a proper physical condition (as defined above in the inclusion criteria and the exclusion criteria), that were diagnosed with confirmed clinical metritis, as determined by any one of the following clinical criteria, were enrolled to this clinical study:
# 1) cows must be febrile (i.e., morning rectal temperature more than 39.4° C.) and/or
# 2) cows must have a flaccid, non-retractable uterus that is located in the abdomen, a cervical diameter >7.5 cm, and a watery, mucopurulent, or fetid vulvar discharge.
# On day “0” (first day of the study), dairy heifers or primiparous or multiparous dairy cows from the same herd and within the same lactation and ages were randomly divided, using tables prepared in advance by the investigator, to receive one or other of the treatments. Within each table, cows were assigned to treatment in pairs, a cow for each group.
# Case study Arm (“arm 1”)—450 mg of bovine casine hydrolysate (Batch Number B100) administered in a 150 ml solution until completion of the arm's sample size.
# (§1) Control Arm (“arm 2”)—25 ml of Oxytetracycline dehydrate (200 mg/ml total of 5,000 mg) (Norbrook Laboratory, UK).
# (§2) Treatment was initiated at day “0” and was administered to the cows through transcervical intrauterine infusion using a sterile uterine catheter.
# Safety was determined by monitoring on days 0.3, 1, 2, 3, 7 and 14 post-treatment, the appearance of adverse events (as detailed below) or any sign of toxicity.
# In addition, the overall general impression from each cow was assessed and ranked according to the description on Table 1.
# Efficacy was assessed by measuring the rectal temperature; genital system morphology and the genital secretions at a first visit after the morning observation and milking, before the treatment, 6-8 hours after the treatment and then on days 1, 2, 3, 7 and 14 post treatment. In general, treatment success was assessed after a total of 14 days after treatment. […]
# [2] = test system: dairy cows with clinical postpartum metritis; assay: Clinical study 2, high dose: casein hydrolysate vs antibiotics in post-partum bovine clinical metritis (safety and efficacy); type: in vivo, lactating Israel Holstein Friesian cows
# Method: The cows recruited for this study were lactating Israel Holstein Friesian located in a large dairy herd in Israel (longitude 34°40′E-35°30′E; latitude 30°30′N-33°01′N).
# Cows enrollment to the study with respect to the physical conditions, inclusion criteria and exclusion criteria were as detailed above for clinical study-1 with respect to the overall physical condition and with respect to the diagnosis with clinical post partum metritis. In addition, cows randomization was as detailed above.
# On day “0” (first day of the study) dairy heifers or primiparous or multiparous dairy cows from the same herd and with the same lactation and ages were randomly divided, using tables prepared in advance by the investigator, to receive one or other of the treatments. Within each table, cows were assigned to treatment in pairs, a cow for each group.
# Case study Arm (“arm 1”)—1350 mg of bovine casein hydrolysate (Batch Number B100) administered in a 150 ml solution 3 times.
# as §1, §2
# Safety and efficacy criteria are as detailed above for clinical study 1 (Example 2)
# The administrated veterinarian examined all cows and was in charge on the ranking of the genital secretions, from 1 to 4, based on the descriptions provided in Table 2 of clinical study 1 as well as the genital system morphology according to the description in Table 3 of clinical study 1 and the overall general impression from each cow according to the description on […].
smiles,measurement,setting,value
"CN(C)[C@@H]1C(O)=C(C(N)=O)C(=O)[C@@]2(O)C(O)=C3C(=O)c4c(O)cccc4[C@@](C)(O)[C@H]3[C@H](O)[C@@H]12 [Antibiotics, Oxytetracycline dehydrate]",cow's fever (rectal temperature),"[1]; 6-8 h after treatment, casein hydrolysate 450 mg or oxytetracycline 5,000 mg intrauterine",39.4 ± 0.66 °C
same,genital secretions (ranking),[1]; 6-8 h after treatment,3.0 ± 0.92
same,cow's fever (rectal temperature),"[1]; Before treatment (day = 0), casein hydrolysate 450 mg in 150 ml or oxytetracycline 5,000 mg, intrauterine infusion, 8 cows per arm",38.8 ± 0.26 °C
same,genital secretions (ranking),"[1]; Before treatment (day = 0), casein hydrolysate 450 mg or oxytetracycline 5,000 mg intrauterine",3.625 ± 0.517
same,cow's fever (rectal temperature),"[1]; Day 1 (22-32 h after treatment), casein hydrolysate 450 mg or oxytetracycline 5,000 mg intrauterine",39.1 ± 0.27 °C
same,genital secretions (ranking),[1]; Day 1 (22-32 h after treatment),2.12 ± 0.84
same,cow's fever (rectal temperature),"[1]; Day 2, casein hydrolysate 450 mg or oxytetracycline 5,000 mg intrauterine",39.1 ± 0.47 °C
same,genital secretions (ranking),[1]; Day 2,2.0 ± 0.92
same,cow's fever (rectal temperature),"[1]; Day 3, casein hydrolysate 450 mg or oxytetracycline 5,000 mg intrauterine",38.9 ± 0.37 °C
same,genital secretions (ranking),[1]; Day 3,2.0 ± 0.92
same,cow's fever (rectal temperature),"[1]; Day 7, casein hydrolysate 450 mg or oxytetracycline 5,000 mg intrauterine",38.9 ± 0.18 °C
same,genital secretions (ranking),[1]; Day 7,1.5 ± 0.75
same,cow's fever (rectal temperature),"[1]; Day 14, casein hydrolysate 450 mg or oxytetracycline 5,000 mg intrauterine",38.8 ± 0.41 °C
same,genital secretions (ranking),[1]; Day 14,1.5 ± 0.75
same,cow's fever (rectal temperature),"[2]; 6-8 h after treatment, casein hydrolysate 1350 mg or oxytetracycline 5,000 mg intrauterine",39.1 °C
same,cow's fever (rectal temperature),"[2]; Before treatment (day = 0), casein hydrolysate 1350 mg (150 ml solution 3 times) or oxytetracycline 5,000 mg, intrauterine, 4 and 3 cows",38.4 °C
same,cow's fever (rectal temperature),"[2]; Day 1 (22-32 h after treatment), casein hydrolysate 1350 mg or oxytetracycline 5,000 mg intrauterine",38.6 °C
same,cow's fever (rectal temperature),"[2]; Day 2, casein hydrolysate 1350 mg or oxytetracycline 5,000 mg intrauterine",38.4 °C
same,cow's fever (rectal temperature),"[2]; Day 3, casein hydrolysate 1350 mg or oxytetracycline 5,000 mg intrauterine",38.9 °C
same,cow's fever (rectal temperature),"[2]; Day 7, casein hydrolysate 1350 mg or oxytetracycline 5,000 mg intrauterine",38.3 °C
same,cow's fever (rectal temperature),"[2]; Day 14, casein hydrolysate 1350 mg or oxytetracycline 5,000 mg intrauterine",38.7 °C
